Measurements: US12336981B2, “Compounds and compositions for the inhibition of NAMPT” (Valo Health, Inc., priority 2010, dated 2025)
Like-named read-outs stand apart in the source and are kept apart here.

Tests used:
NAMPT = target: T1, NAMPT (Homo sapiens, UniProt P43490); assay: Biochemical inhibition assay: NAMPT enzymatic reaction, NMN quantified by mass spectrometry; conditions: read-out: Biochem IC50
T1 construct: His tag; host or cells: E. coli
Procedure, shortened: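 Inhibition of E. coli-expressed His-tagged human NAMPT, measured as NMN formation by mass spectrometry after a 30 min room-temperature reaction containing 1 μM NAM, 100 μM PRPP and 2.5 mM ATP.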

A2780 cells = assay: In-vitro cell proliferation assay (SRB), A2780 cells; assay type: cell-based; conditions: Homo sapiens, A2780, 72 h, A2780 cells, 72 hours, read-out: A2780 IC50
Procedure, shortened: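 SRB read-out: 6% TCA fix 1 h at 4° C., stain, Tris solubilize, A570. Media-only background subtracted; % inhibition from two compound concentrations.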

T1 sequence (P43490 whole entry): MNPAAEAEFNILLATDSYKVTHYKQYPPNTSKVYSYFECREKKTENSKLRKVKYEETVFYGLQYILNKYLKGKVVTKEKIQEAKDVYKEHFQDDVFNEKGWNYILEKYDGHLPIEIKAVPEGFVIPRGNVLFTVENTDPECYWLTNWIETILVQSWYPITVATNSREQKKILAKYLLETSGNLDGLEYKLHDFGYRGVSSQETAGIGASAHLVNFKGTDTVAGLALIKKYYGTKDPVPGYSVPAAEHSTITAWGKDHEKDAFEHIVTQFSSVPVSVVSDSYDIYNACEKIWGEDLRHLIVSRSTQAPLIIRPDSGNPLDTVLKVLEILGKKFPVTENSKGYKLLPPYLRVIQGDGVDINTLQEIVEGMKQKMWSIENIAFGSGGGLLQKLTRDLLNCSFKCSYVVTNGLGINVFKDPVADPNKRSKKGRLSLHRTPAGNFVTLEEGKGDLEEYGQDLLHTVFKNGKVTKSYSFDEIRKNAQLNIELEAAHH

Structure (SMILES)	IC50 (NAMPT; NAMPT enzymatic assay)	IC50 (A2780 cells; SRB)	IC50 (NAMPT; NAMPT enzymatic reaction)	IC50 (A2780 cells; SRB assay)
O=C(NCc1ccc(S(=O)(=O)c2cccc(N3CCOCC3)c2)cc1)c1ccc2nccn2c1	7.7 nM	3.3 nM		
COc1cc(C)cc(S(=O)(=O)c2ccc(CNC(=O)c3cc4ccncc4o3)cc2)c1		1.6 nM	2.2 nM	
O=C(NCc1ccc(S(=O)(=O)c2ccccc2Oc2ccccc2)cc1)c1cc2cnccc2[nH]1 [N-({4-[(2-phenoxybenzene)sulfonyl]phenyl}methyl)-1H-pyrrolo[3,2-c]pyridine-2-carboxamide]			11 nM	7 nM
Cc1cc(C(F)(F)F)ccc1S(=O)(=O)c1ccc(CNC(=O)c2cc3cnccc3[nH]2)cc1	30.5 nM	25.3 nM		
CCCOc1cccc(F)c1S(=O)(=O)c1ccc(CNC(=O)c2ccc3nccn3c2)cc1		1 nM	91.4 nM	
CCCCc1ccc(S(=O)(=O)c2ccc(CNC(=O)c3ccc4nccn4c3)cc2)cc1		7.6 nM	5.7 nM	
CCOc1cc(F)ccc1S(=O)(=O)c1ccc(CNC(=O)c2cc3ccncc3o2)cc1		6.9 nM	7.7 nM	
O=C(NCc1ccc(S(=O)(=O)c2cccnc2)cc1)c1cnc2nccn2c1 [N-{[4-(pyridine-3-sulfonyl)phenyl]methyl}imidazo[1,2-a]pyrimidine-6-carboxamide]	5.9 nM	100 to 1000 nM		
CCN(C)c1ncc(S(=O)(=O)c2ccc(CNC(=O)c3cnc4nccn4c3)cc2)s1 [N-[(4-{2-[ethyl(methyl)amino]-1,3-thiazole-5-sulfonyl}phenyl)methyl]imidazo[1,2-a]pyrimidine-6-carboxamide]	1.8 nM	0.9 nM		
CN(C)c1ccc(S(=O)(=O)c2ccc(CNC(=O)c3cc4cnccc4[nH]3)cc2)cn1 [N-({4-[6-(dimethylamino)pyridine-3-sulfonyl]phenyl}methyl)-1H-pyrrolo[3,2-c]pyridine-2-carboxamide]	20.9 nM	3.4 nM		
Cc1cccc(C)c1S(=O)(=O)c1ccc(CNC(=O)c2cnc3[nH]ncc3c2)cc1 [N-({4-[(2,6-dimethylbenzene)sulfonyl]phenyl}methyl)-1H-pyrazolo[3,4-b]pyridine-5-carboxamide]		100 to 1000 nM	159 nM	
O=C(NCc1ccc(S(=O)(=O)c2ccc(CO)cc2)cc1)c1cc2ccncc2o1	4.9 nM	6.2 nM		
COc1ccc(F)cc1NS(=O)(=O)c1ccc(CNC(=O)c2ccc3ncccc3c2)cc1 [N-({4-[(5-fluoro-2-methoxyphenyl)sulfamoyl]phenyl}methyl)quinoline-6-carboxamide]	66 nM	1000 to 10000 nM		
O=C(NCc1ccc(S(=O)(=O)c2cccc3c2sc2ccccc23)cc1)c1cc2ccncc2s1	1.4 nM	4.3 nM		
CCNC(=O)c1ccc(S(=O)(=O)c2ccc(CNC(=O)c3cnc4nccn4c3)cc2)cc1	22.6 nM	87.8 nM		
O=C(NCc1ccc(S(=O)(=O)c2cc(F)cc(N3CCCC3)c2)cc1)c1cc2ccncc2s1	1.2 nM	2.7 nM		
CC(=O)c1ccccc1S(=O)(=O)c1ccc(CNC(=O)c2cnc3nccn3c2)cc1		8.2 nM	2.5 nM	
Cc1cccc(S(=O)(=O)c2ccc(CNC(=O)c3cnc4nccn4c3)cc2)c1		9.1 nM	1.9 nM	
O=C(Nc1ccc(CNC(=O)c2cc3cnccc3[nH]2)cc1)c1ccccc1 [N-[(4-benzamidophenyl)methyl]-1H-pyrrolo[3,2-c]pyridine-2-carboxamide]			19 nM	4 nM
Cc1ccc(S(=O)(=O)c2ccc(CNC(=O)c3cnc4nccn4c3)cc2)cn1 [N-{[4-(6-methylpyridine-3-sulfonyl)phenyl]methyl}imidazo[1,2-a]pyrimidine-6-carboxamide]	5.9 nM	55.5 nM		
COc1cncc(S(=O)(=O)c2ccc(CNC(=O)c3cnc4[nH]ncc4c3)cc2)c1 [N-{[4-(5-methoxypyridine-3-sulfonyl)phenyl]methyl}-1H-pyrazolo[3,4-b]pyridine-5-carboxamide]	41.4 nM	16.7 nM		
O=C(NCc1ccc(S(=O)(=O)c2ccc(N3CCCC3)cc2)cc1)c1ccc2cn[nH]c2n1	6 nM	4.5 nM		
Cc1ccnc(S(=O)(=O)c2ccc(CNC(=O)c3cc4ccncc4o3)cc2)c1 [N-{[4-(4-methylpyridine-2-sulfonyl)phenyl]methyl}furo[2,3-c]pyridine-2-carboxamide]	19.2 nM	11.4 nM		
Cc1cc(Cl)cnc1S(=O)(=O)c1ccc(CNC(=O)c2cc3ccncc3o2)cc1 [N-{[4-(5-chloro-3-methylpyridine-2-sulfonyl)phenyl]methyl}furo[2,3-c]pyridine-2-carboxamide]	9.9 nM	16.5 nM		
O=C(NCc1ccc(S(=O)(=O)c2cncc(F)c2)cc1)c1cc2cnccc2[nH]1 [N-{[4-(5-fluoropyridine-3-sulfonyl)phenyl]methyl}-1H-pyrrolo[3,2-c]pyridine-2-carboxamide]	71.3 nM	13.6 nM		

Structure (SMILES)	IC50 (NAMPT; NAMPT enzymatic assay)	IC50 (A2780 cells; SRB)	IC50 (NAMPT; NAMPT enzymatic reaction)	IC50 (A2780 cells; SRB assay)
CC(C)COc1cccc(S(=O)(=O)c2ccc(CNC(=O)c3cc4ccncc4o3)cc2)c1	14.8 nM	67.7 nM		
O=C(NCc1ccc(S(=O)(=O)c2ccc(C(F)(F)F)cc2OCC(F)(F)F)cc1)c1cc2cnccc2[nH]1	9 nM	1 nM		
Cc1c(F)cccc1S(=O)(=O)c1ccc(CNC(=O)c2cnc3[nH]ncc3c2)cc1 [N-({4-[(3-fluoro-2-methylbenzene)sulfonyl]phenyl}methyl)-1H-pyrazolo[3,4-b]pyridine-5-carboxamide]		71.8 nM	46.9 nM	
O=C(NCc1ccc(S(=O)(=O)c2cc(F)cc(OCC(F)(F)F)c2)cc1)c1cc2ccncc2s1 [N-[(4-{[3-fluoro-5-(2,2,2-trifluoroethoxy)benzene]sulfonyl}phenyl)methyl]thieno[2,3-c]pyridine-2-carboxamide]	2.9 nM	3.5 nM		
CCOc1ccc(S(=O)(=O)c2ccc(CNC(=O)c3cnc4nccn4c3)cc2)cc1F		3.1 nM	0.9 nM	
Cn1cc2ccc(S(=O)(=O)c3ccc(CNC(=O)c4cc5ccncc5s4)cc3)cc2n1 [N-{[4-(2-methyl-2H-indazole-6-sulfonyl)phenyl]methyl}thieno[2,3-c]pyridine-2-carboxamide]	1.4 nM	1.5 nM		
O=C(NCc1ccc(S(=O)(=O)c2cccc(-c3ccccc3)c2)cc1)c1ccc2nccn2c1		6.8 nM	12.2 nM	
Cc1ccc(Cl)cc1S(=O)(=O)c1ccc(CNC(=O)c2cnc3[nH]ncc3c2)cc1 [N-({4-[(5-chloro-2-methylbenzene)sulfonyl]phenyl}methyl)-1H-pyrazolo[3,4-b]pyridine-5-carboxamide]		13.9 nM	22.7 nM	
O=C(NCc1ccc(S(=O)(=O)c2ccc(C(F)(F)F)c(Cl)c2)cc1)c1ccc2nccn2c1	2.9 nM	1.2 nM		
O=C(NCc1ccc(S(=O)(=O)c2cccc(F)c2)cc1)c1cc2ccncc2s1 [N-({4-[(3-fluorobenzene)sulfonyl]phenyl}methyl)thieno[2,3-c]pyridine-2-carboxamide]			3 nM	3.3 nM
COc1cc(Cl)ccc1S(=O)(=O)c1ccc(CNC(=O)c2cc3ccncc3o2)cc1		24.8 nM	8.5 nM	
O=C(NCc1ccc(S(=O)(=O)c2cc(C(F)(F)F)ccn2)cc1)c1cc2ccncc2o1 [N-({4-[4-(trifluoromethyl)pyridine-2-sulfonyl]phenyl}methyl)furo[2,3-c]pyridine-2-carboxamide]	13.9 nM	6.1 nM		
CC(C)COc1cc(F)cc(S(=O)(=O)c2ccc(CNC(=O)c3ccc4nccn4c3)cc2)c1	11.3 nM	3 nM		
O=C(NCc1ccc(S(=O)(=O)Nc2ccc3c(c2)OCCO3)cc1)c1cc2cnccc2[nH]1 [N-({4-[(2,3-dihydro-1,4-benzodioxin-6-yl)sulfamoyl]phenyl}methyl)-1H-pyrrolo[3,2-c]pyridine-2-carboxamide]			> 10000 nM	> 10000 nM
Cc1cc(S(=O)(=O)c2ccc(CNC(=O)c3cc4cnccc4[nH]3)cc2)c(C)cc1F		12.8 nM	51.4 nM	
O=C(NCc1ccc(S(=O)(=O)c2cccc3ccccc23)cc1)c1cc2ccncc2o1 [N-{[4-(naphthalene-1-sulfonyl)phenyl]methyl}furo[2,3-c]pyridine-2-carboxamide]	4.9 nM	3.1 nM		
COc1ccc(C)c(NS(=O)(=O)c2ccc(CNC(=O)c3cc4cnccc4[nH]3)cc2)c1 [N-({4-[(5-methoxy-2-methylphenyl)sulfamoyl]phenyl}methyl)-1H-pyrrolo[3,2-c]pyridine-2-carboxamide]			51 nM	13000 nM
COc1c(Cl)cccc1S(=O)(=O)c1ccc(CNC(=O)c2cc3ccncc3o2)cc1		62.3 nM	19.2 nM	
COc1c(Cl)ccc(S(=O)(=O)c2ccc(CNC(=O)c3cc4ccncc4s3)cc2)c1Cl		6.7 nM	5.1 nM	
CC(C)CNC(=O)c1cccc(S(=O)(=O)c2ccc(CNC(=O)c3cc4ccncc4o3)cc2)c1	16.9 nM	26.3 nM		
CS(=O)(=O)c1cccc(S(=O)(=O)c2ccc(CNC(=O)c3ccc4nccn4c3)cc2)c1		16 nM	25.6 nM	
CCCOc1ccc(S(=O)(=O)c2ccc(CNC(=O)c3cnc4nccn4c3)cc2)cc1Cl		2.4 nM	3.9 nM	
O=C(NCc1ccc(S(=O)(=O)c2cc(F)ccc2Cl)cc1)c1cc2cnccc2[nH]1		12.1 nM	28.1 nM	
O=C(NCc1ccc(S(=O)(=O)CCCc2ccccc2)cc1)c1cc2cnccc2[nH]1 [N-({4-[(3-phenylpropane)sulfonyl]phenyl}methyl)-1H-pyrrolo[3,2-c]pyridine-2-carboxamide]		78 nM	14 nM	
